Among the test systems are Acinetobacter baumannii; Escherichia coli UB1005; Bacillus cereus C737; Escherichia coli K-12; Staphylococcus aureus; Klebsiella pneumoniae; Campylobacter jejuni; Escherichia coli.
Holding throughout (experiment): ≥ marks a high value that may be exact or a test limit, other limits are often not marked, values filed in µg/mL are converted to µM
The subject of assay [1] is Pseudomonas aeruginosa CGMCC 1.2421.
The subject of assay [2] is Staphylococcus epidermidis CGMCC 1.4260.
Assay [3] relates to Klebsiella pneumoniae CGMCC 1.1736.
Assay [4] relates to Escherichia coli CGMCC 1.8732.
In assay [5] the test system is Bacillus subtilis CGMCC 1.3376.
Assay [6] concerns Staphylococcus aureus CGMCC 1.8721.
The subject of assay [7] is Salmonella enterica subsp. enterica serovar Typhimurium ATCC 14028.
Assay [8] concerns Escherichia coli ATCC 11775.
The subject of assay [9] is Salmonella enterica subsp. enterica serovar Typhi Vi+.
Assay [10] relates to Escherichia coli ATCC 25922.
Assay [11] concerns Escherichia coli ATCC 35218.
In assay [12] the test system is Pseudomonas aeruginosa PAO1.
Assay [13] relates to Staphylococcus aureus USA 300.
Assay [14] deals with Pseudomonas aeruginosa PA-W14.
In assay [15] the test system is Pseudomonas aeruginosa PA-W1.
Assay [16] relates to Staphylococcus aureus NCTC 8325-4.
The test system of assay [17] is Klebsiella pneumoniae ATCC 700603.
The subject of assay [18] is Pseudomonas aeruginosa Q12-0581.
For assay [19], the system named is Staphylococcus aureus MRSA-15.
Assay [20] deals with Staphylococcus aureus RN4220.
Assay [21] deals with Pseudomonas aeruginosa ATCC 27853.
In assay [22] the test system is Acinetobacter baumannii Q12-0867.
For assay [23], the system named is Staphylococcus aureus ATCC 29213.
The test system of assay [24] is Listeria monocytogenes NCTC 11994.
Assay [25] concerns Klebsiella pneumoniae Q14-0285.
Assay [26] relates to Staphylococcus aureus NCTC 12493.
In assay [27] the test system is Acinetobacter baumannii Q13-0717.
Assay [28] deals with Salmonella typhimurium SL1344.
For assay [29], the system named is Klebsiella pneumoniae NCTC 13442.
For assay [30], the system named is Staphylococcus aureus Q14-0320.
The test system of assay [31] is Pseudomonas aeruginosa Q14-0208.
Assay [32] relates to Pseudomonas aeruginosa Q14-0890.
For assay [33], the system named is Campylobacter jejuni NCTC 11351.
The subject of assay [34] is Acinetobacter baumannii Q12-0809.
Assay [35] deals with Klebsiella pneumoniae Q14-0095.
In assay [36] the test system is Enterococcus faecalis JH-2-2.

Structures are written as SMILES. Converted amounts (≈) assume the structure as drawn. Bounds are passed on as bounds.

What is called MIC is the smallest concentration in the dilution series that meets the test's criterion for growth inhibition. A lower MIC goes with a more susceptible organism. As to `CC[C@H](C)[C@H](NC(=O)[C@H](CO)NC(=O)CNC(=O)[C@@H](NC(=O)[C@@H](N)CCCN=C(N)N)[C@@H](C)CC)C(=O)N[C@@H](CC(C)C)C(=O)NCC(=O)N[C@@H](CCCN=C(N)N)C(=O)N[C@@H](CC(C)C)C(=O)N[C@@H](C)C(=O)N[C@@H](CCCCN)C(=O)NCC(=O)N[C@@H](CC(C)C)C(=O)N1CCC[C@H]1C(=O)N[C@H](C(=O)N[C@@H](CC(C)C)C(=O)N[C@@H](CCCCN)C(=O)N[C@@H](CO)C(=O)N[C@@H](Cc1c[nH]c2ccccc12)C(=O)N[C@H](C(=O)N[C@@H](CCCCN)C(=O)N[C@@H](CC(N)=O)C(=O)N[C@@H](CCCN=C(N)N)C(N)=O)[C@@H](C)CC)[C@@H](C)O` [RIGSILGRLAKGLPTLKSWIKNR], the MIC turned out to be 12.5 µM (≈ 32.2 µg/mL) in assay [1]; 6.25 µM (≈ 16.1 µg/mL) in assay [2]; 12.5 µM (≈ 32.2 µg/mL) in assay [3]; 12.5 µM (≈ 32.2 µg/mL) in [4]; 12.5 µM (≈ 32.2 µg/mL) in assay [5]; 12.5 µM (≈ 32.2 µg/mL) against Acinetobacter baumannii. In addition, the MIC in assay [6] is not below 100 µM.

As to `CC[C@H](C)[C@H](NC(=O)[C@@H]1CCCN1C(=O)[C@H](CCCN=C(N)N)NC(=O)[C@@H]1CCCN1C(=O)[C@H](Cc1cnc[nH]1)NC(=O)[C@H](CO)NC(=O)[C@H](CO)NC(=O)[C@@H]1CCCN1C(=O)[C@H](CCCN=C(N)N)NC(=O)[C@@H]1CCCN1C(=O)[C@H](CO)NC(=O)[C@H](Cc1ccc(O)cc1)NC(=O)[C@@H]1CCCN1C(=O)[C@H](CCCN=C(N)N)NC(=O)[C@@H]1CCCN1C(=O)[C@H](CCCCN)NC(=O)CN)C(=O)N[C@@H](CCCN=C(N)N)C(=O)N[C@H](C(=O)O)C(C)C` [GKPRPYSPRPSSHPRPIRV], the MIC in assay [7] was 2 µM (≈ 4.37 µg/mL); in [8], 0.6 µM (≈ 1.31 µg/mL); in [9], 3 µM (≈ 6.55 µg/mL); in [10], 0.4 µM (≈ 0.874 µg/mL); in assay [11], 0.2 µM (≈ 0.437 µg/mL).

Take `CC[C@H](C)[C@H](NC(=O)[C@H](CC(=O)O)NC(=O)[C@H](Cc1ccccc1)NC(=O)[C@H](CC(C)C)NC(=O)CN)C(=O)N[C@H](C(=O)N[C@@H](CCCCN)C(=O)N[C@@H](CCCCN)C(=O)N[C@H](C(=O)N[C@H](C(=O)NCC(=O)N[C@@H](C)C(=O)N[C@@H](CC(C)C)C(N)=O)C(C)C)C(C)C)C(C)C` [GLFDIVKKVVGAL]: the MIC in the assay on Escherichia coli UB1005 was 23.6 µM (≈ 32 µg/mL); in [12], more than 94.2 µM; in [13], 11.8 µM (≈ 16 µg/mL); in the assay on Bacillus cereus C737, not below 47.1 µM.

Turning to `NCCCC[C@H](NC(=O)[C@H](Cc1c[nH]c2ccccc12)NC(=O)[C@H](Cc1c[nH]c2ccccc12)NC(=O)[C@H](CCCCN)NC(=O)[C@H](CCCCN)NC(=O)[C@H](Cc1c[nH]c2ccccc12)NC(=O)[C@H](Cc1c[nH]c2ccccc12)NC(=O)[C@H](CCCCN)NC(=O)[C@H](CCCCN)NC(=O)[C@@H](N)Cc1c[nH]c2ccccc12)C(N)=O` [WKKWWKKWWK], the MIC in assay [14] was not below 125 µM; in assay [15] it was 31.3 µM (≈ 49.7 µg/mL); in the assay on Escherichia coli K-12, 15.6 µM (≈ 24.8 µg/mL); with Staphylococcus aureus, 15.6 µM (≈ 24.8 µg/mL); in assay [16], 15.6 µM (≈ 24.8 µg/mL); in assay [12], 15.6 µM (≈ 24.8 µg/mL). The same molecule displayed an MIC against Klebsiella pneumoniae of 62.5 µM (≈ 99.3 µg/mL).

`CC(C)C[C@H](NC(=O)[C@H](Cc1cnc[nH]1)NC(=O)[C@H](Cc1ccccc1)NC(=O)[C@H](Cc1ccccc1)NC(=O)[C@H](CCCN=C(N)N)NC(=O)[C@H](CCCCN)NC(=O)[C@H](CO)NC(=O)[C@H](CCCN=C(N)N)NC(=O)[C@H](Cc1cnc[nH]1)NC(=O)[C@H](CC(C)C)NC(=O)[C@H](Cc1ccccc1)NC(=O)[C@H](CCCCN)NC(=O)[C@H](CCCN=C(N)N)NC(=O)[C@H](Cc1ccc(O)cc1)NC(=O)CNC(=O)[C@@H](NC(=O)[C@H](Cc1cnc[nH]1)NC(=O)[C@H](CC(C)C)NC(=O)[C@@H](N)C(C)C)[C@@H](C)O)C(=O)N[C@@H](CCCN=C(N)N)C(=O)O` [VLHTGYRKFLHRSKRFFHLR]: the MIC was 49.2 µM (≈ 128 µg/mL) in assay [17]; not below 49.2 µM in assay [18]; not below 49.2 µM in [19]; not below 49.2 µM against Campylobacter jejuni; not below 49.2 µM in [20]; more than 49.2 µM in assay [21]. Moreover, the minimum inhibitory concentration (MIC) was 24.6 µM (≈ 64 µg/mL) in assay [22]; more than 49.2 µM in assay [23]; 24.6 µM (≈ 64 µg/mL) in assay [24]; 24.6 µM (≈ 64 µg/mL) in [25]; 12.3 µM (≈ 32 µg/mL) in assay [26]; not below 49.2 µM in [27]. For the same molecule, the MIC in assay [28] was 12.3 µM (≈ 32 µg/mL); in the assay on Escherichia coli K-12, 24.6 µM (≈ 64 µg/mL); in assay [29] it was not below 49.2 µM; in [30], not below 49.2 µM; in assay [31] it was not below 49.2 µM; in assay [32] it was 24.6 µM (≈ 64 µg/mL). Further, the MIC in [33] was not below 49.2 µM; in [12] it was 197 µM (≈ 512 µg/mL); in assay [34] it was 12.3 µM (≈ 32 µg/mL); in [35] it was not below 49.2 µM; in the assay with Escherichia coli, more than 49.2 µM; in [36] it was 24.6 µM (≈ 64 µg/mL).

The record behind these values is DBAASP.
